From patent US10793525B2, “13-cis-RAMBA retinamides that degrade MNKs for treating cancer” (UNIVERSITY OF MARYLAND, BALTIMORE, priority 2014, dated 2020)

Assays:
[1] = system: Mnk1 and 2, peIF4E, eIF4E and cPARP; experiment: Western blot of lysates from MCF-7, MDA-MB-231 and MDA-MB-468 cells; assay type: cell-based, human; conditions: MCF-7, MDA-MB-231, MDA-MB-468 cells, 24 hours
Description: (§1) MCF-7, MDA-MB-231, MDA-MB-468 and SKBR-3 human breast cancer cells and LNCaP, PC-3, and CWR22Rv1 human prostate carcinoma cells (American Type Culture Collection, Manassas, Va., USA) were maintained in RPMI 1640 media (Gibco-Life Technologies, Grand Island, N.Y., USA) supplemented with 10% fetal bovine serum and 1% penicillin/streptomycin. Western blotting was done as mentioned previously,^8, 13b using the following antibodies: AR, Bad, Bax, Bcl-2, eIF4E, Mnk1, Mnk-2, N-cadherin, PARP, peIF4E^ser209 purchased from Cell Signaling Technology, Danvers, Mass., USA. Anti-Mnk2 was purchased from Sigma-Aldrich and normal rabbit IgG, cyclin D1 was from Santa Cruz Biotechnology, CA, USA.
As we previously reported, the anti-proliferative effects of the 1st generation MNKDAs in BC cells was due to degradation of Mnk1/2 with subsequent depletion of peIF4E and induction of apoptosis.^8a To determine if these compounds modulate Mnk1/2 and related oncogenic proteins, the inventors performed western blot of lysates from MCF-7, MDA-MB-231 and MDA-MB-468 human breast cancer cells treated with Compounds 16, 20, and 22, or with vehicle (DMSO, negative control), or Compound 6 (positive control). Equal protein concentrations from MCF-7 (FIG. 3A), MDA-MB-231 (FIG. 3B) and MDA-MB-468 (FIG. 3C) cells treated for 24 hours with Compounds 16, 20 and 22 at the various concentrations as indicated and Compound 6 (20 μmol/L) were separated by SDS-PAGE and western blots probed with antibodies to Mnk1 and 2, peIF4E, eIF4E and cPARP. Vehicle treated cells were included as control and all blots were reprobed for GAPDH for loading control.

[2] = system: fAR, Mnk1/2, peIF4E, cyclin D1 and cleaved PARP; experiment: Western blot of lysates from LNCaP cells; assay type: cell-based, human; conditions: 0.6-20 μM, 24 hours
Description: as §1
Equal protein concentrations from LNCaP cells treated with Compounds 16, 20 and 22 at different concentrations (0.6-20 μM) for 24 hours were separated by SDS-PAGE and western blots probed with antibodies to fAR, Mnk1/2, peIF4E, cyclin D1 and cleaved PARP. Vehicle treated cells were included as a control and all blots were reprobed for β-actin for loading control.

[3] = system: Mnk-1, peIF4E and their downstream targets; experiment: Molecular analysis of MDA-MB-231 tumors; assay type: in vivo; conditions: MDA-MB-231 tumors from treated mice
Description: To assess their in vivo mode of action, we evaluated the effects of Compounds 20 and 22 on Mnk-1, peIF4E and their downstream targets.

[4] = system: PC-3 cells; experiment: Wound-healing assay, PC-3 cell migration; assay type: cell-based, human; conditions: 5 μM, 24 hours
Procedure: Wound healing assay and matrigel invasion assay were also conducted as described previously using highly metastatic PC-3 cells following treatment with 5 μM of RRs for 24 h.^8a,26
Based on previous studies with closely related compound,^8 the inhibitory effects of Compounds 16, 20 and 22 on cell migration were evaluated, using the human metastatic PC cell line, PC-3 by wound-healing assay. PC-3 cells (5×10^5 cells/well) were seeded on Boyden chamber, grown to confluence and scratches made at experimental tome zero. The cells were treated with indicated compounds (5 μM each) for 24 hours. Representative photomicrographs of initial and final wounds are shown at 100× magnification. […] At 24 hours after cell monolayers were wounded, control cells had completely filled in the scratched area.

[5] = system: LNCaP human prostate carcinoma cells; experiment: MTT cell proliferation assay, LNCaP; assay type: cell-based; conditions: SEM < 10%, read-out: GI50s LNCaP
Description: as §1
Cells were plated (2500 cells/well) in 96 well plates and treated with or without specified compounds as described previously.^8a, 12b
The clinically relevant retinoids, ATRA and 4-HPR and the Mnk inhibitor, cercosporamide were used as comparators in the assays.
The PC-3 cell line was the least sensitive to all the compounds tested.

Structure (SMILES): CC1=C(/C=C/C(C)=C/C=C/C(C)=C\C(=O)Nc2cccc(F)c2)C(C)(C)CCC1n1ccnc1 (centres unmarked) [Compound 20, (2Z,4E,6E,8E)-9-(3-(1H-imidazol-1-yl)-2,6,6-trimethylcyclohex-1-en-1-yl)-N-(3-fluorophenyl)-3,7-dimethylnona-2,4,6,8-tetraenamide]
- expression of total eIF4E [1]: no noticeable effects
- expressions of Mnk1, Mnk2 and peIF4E [1]: significantly and dose-dependently, reduced
- formation of c-PARP (apoptosis) [1]: dose-dependent formation of c-PARP
- cleaved PARP (c-PARP) [2]: induced cleaved PARP
- cyclin D1 [2]: significant depletion
- expression of total eIF4E [2]: no noticeable effects
- expressions of fAR, Mnk1 and Mnk2 [2]: significantly and in a dose-dependent fashion, reduced
- Mnk1/2, peIF4E, cyclin D1 and Bcl-2 in tumors [3]: depletion
- pro-apoptotic proteins Bad and Bax in tumors [3]: up-regulation
- migration of PC-3 cells [4]: significantly inhibited migration
- IC50 [5]: 2.69 µM
